This note sets out measurements from US10150764B2, “Substituted benzene compounds” (Epizyme, Inc., priority 2013, dated 2018).

Counter-ions that a name gives are not always drawn.

A word on the IC50: it is the midpoint of a concentration-inhibition curve.

The test system of test [1] is WSU-DLCL2 cells. In words: Cell proliferation analysis, WSU-DLCL2 (Cell Titer Glo). The note with it: Homo sapiens, WSUDLCL2, 144 h, 6 days incubation, ATP readout. Type of test: cell-based. From the text:
Cell Proliferation Analysis
WSU-DLCL2 suspension cells were purchased from DSMZ (German Collection of Microorganisms and Cell Cultures, Braunschweig, Germany), RPMI/Glutamax Medium, Penicillin-Streptomycin, Heat Inactivated Fetal Bovine Serum were purchased from Life Technologies, Grand Island, N.Y., USA, V-bottom polypropylene 384-well plates were purchased from Greiner Bio-One, Monroe, N.C., USA. Cell culture 384-well white opaque plates were purchased from Perkin Elmer, Waltham, Mass., USA. Cell-Titer Glo® was purchased from Promega Corporation, Madison, Wis., USA. SpectraMax M5 plate reader was purchased from Molecular Devices LLC, Sunnyvale, Calif., USA.
WSU-DLCL2 suspension cells were maintained in growth medium (RPMI 1640 supplemented with 10% v/v heat inactivated fetal bovine serum and cultured at 37° C. under 5% CO2. Under assay conditions, cells were incubated in Assay Medium (RPMI 1640 supplemented with 20% v/v heat inactivated fetal bovine serum and 100 units/mL penicillin-streptomycin) at 37° C. under 5% CO2.
For the assessment of the effect of compounds on the proliferation of the WSU-DLCL2 cell line, exponentially growing cells were plated in 384-well white opaque plates at a density of 1250 cell/ml in a final volume of 50 μl of assay medium. A compound source plate was prepared by performing triplicate nine-point 3-fold serial dilutions in DMSO, beginning at 10 mM (final top concentration of compound in the assay was 20 μM and the DMSO was 0.2%). A 100 nL aliquot from the compound stock plate was added to its respective well in the cell plate. […] After addition of compounds, assay plates were incubated for 6 days at 37° C., 5% CO2, relative humidity >90% for 6 days. Cell viability was measured by quantization of ATP present in the cell cultures, adding 35 μl of Cell Titer Glo® reagent to the cell plates. Luminescence was read in the SpectraMax M5. The concentration inhibiting cell viability by 50% was determined using a 4-parametric fit of the normalized dose response curves.
For orientation: In ATP-based viability assays light output follows the ATP content of the culture.

Test [2] has as its target EZH2 Y641F mutant (PRC2 enzyme) (Homo sapiens (Human), UniProt Q15910, Y641F). Description: PRC2 enzyme assay on peptide substrate, EZH2 Y641F mutant (H3K27me2 peptide, 3H-SAM Flashplate). Format: biochemical. The note with it: Y641F mutant PRC2 4 nM.
Test [3] has as its system H3K27me3 in WSU-DLCL2 cells. In words: WSU-DLCL2 methylation assay (H3K27me3 ELISA). Type of test: cell-based, human. The note with it: Homo sapiens, WSUDLCL2, 96 hours incubation, H3K27me3 normalised to total H3. Background: An ELISA detects its analyte on a solid surface through an enzyme-linked reagent.
Description: WSU-DLCL2 Methylation Assay
WSU-DLCL2 suspension cells were purchased from DSMZ (German Collection of Microorganisms and Cell Cultures, Braunschweig, Germany). RPMI/Glutamax Medium, Penicillin-Streptomycin, Heat Inactivated Fetal Bovine Serum, and D-PBS were purchased from Life Technologies, Grand Island, N.Y., USA. Extraction Buffer and Neutralization Buffer (5×) were purchased from Active Motif, Carlsbad, Calif., USA. Rabbit anti-Histone H3 antibody was purchased from Abcam, Cambridge, Mass., USA. Rabbit anti-H3K27me3 and HRP-conjugated anti-rabbit-IgG were purchased from Cell Signaling Technology, Danvers, Mass., USA. TMB “Super Sensitive” substrate was sourced from BioFX Laboratories, Owings Mills, Md., USA. IgG-free Bovine Serum Albumin was purchased from Jackson ImmunoResearch, West Grove, Pa., USA. PBS with Tween (10×PBST) was purchased from KPL, Gaithersburg, Md., USA. Sulfuric Acid was purchased from Ricca Chemical, Arlington, Tex., USA. Immulon ELISA plates were purchased from Thermo, Rochester, N.Y., USA. V-bottom cell culture plates were purchased from Corning Inc., Corning, N.Y., USA. V-bottom polypropylene plates were purchased from Greiner Bio-One, Monroe, N.C., USA.
WSU-DLCL2 suspension cells were maintained in growth medium (RPMI 1640 supplemented with 10% v/v heat inactivated fetal bovine serum and 100 units/mL penicillin-streptomycin) and cultured at 37° C. under 5% CO2. Under assay conditions, cells were incubated in Assay Medium (RPMI 1640 supplemented with 20% v/v heat inactivated fetal bovine serum and 100 units/mL penicillin-streptomycin) at 37° C. under 5% CO2 on a plate shaker.
WSU-DLCL2 cells were seeded in assay medium at a concentration of 50,000 cells per mL to a 96-well V-bottom cell culture plate with 200 μL per well. […] Plates were incubated on a titer-plate shaker at 37° C., 5% CO2 for 96 hours. After four days of incubation, plates were spun at 241×g for five minutes and medium was aspirated gently from each well of cell plate without disturbing cell pellet. Pellet was resuspended in: 200 μL DPBS and plates were spun again at 241×g for five minutes. The supernatant was aspirated and cold (4° C.) Extraction buffer (100 μL) was added per well. Plates were incubated at 4° C. on orbital shaker for two hours. Plates were spun at 3427×g×10 minutes. Supernatant (80 μL per well) was transferred to its respective well in 96 well V-bottom polypropylene plate. Neutralization Buffer 5× (20 μL per well) was added to V-bottom polypropylene plate containing supernatant. V-bottom polypropylene plates containing crude histone preparation (CHP) were incubated on orbital shaker×five minutes. Crude Histone Preparations were added (2 μL per well) to each respective well into duplicate 96 well ELISA plates containing 100 μL Coating Buffer (1×PBS+BSA 0.05% w/v). Plates were sealed and incubated overnight at 4° C. The following day, plates were washed three times with 300 μL per well 1×PBST. […] For H3K27me3 detection, 100 μL of HRP conjugated anti-rabbit IgG antibody diluted to 1:4000 in ELISA diluent was added per well. Plates were incubated at room temperature for 90 minutes. […] TMB substrate 100 μL was added per well. Histone H3 plates were incubated for five minutes at room temperature. H3K27me3 plates were incubated for 10 minutes at room temperature. The reaction was stopped with sulfuric acid 1N (100 μL per well). Absorbance for each plate was read at 450 nm.
Each plate included eight control wells DMSO only treatment (Minimum Inhibition) as well as eight control wells for maximum inhibition (Background wells).
The average of the ratio values for each control type was calculated and used to determine the percent inhibition for each test well in the plate. Test compound was serially diluted three-fold in DMSO for a total of ten test concentrations, beginning at 25 μM.
Test [4] has as its target wild-type EZH2 (PRC2 enzyme) (Homo sapiens (Human), UniProt Q15910). Description: PRC2 enzyme assay on peptide substrate, wild-type EZH2 (H3K27me0 peptide, 3H-SAM Flashplate). The note with it: wild-type PRC2 4 nM, read-out: WT EZH2 IC50. Format: biochemical.

Chain of wild-type EZH2 (PRC2 enzyme) (Q15910 whole entry): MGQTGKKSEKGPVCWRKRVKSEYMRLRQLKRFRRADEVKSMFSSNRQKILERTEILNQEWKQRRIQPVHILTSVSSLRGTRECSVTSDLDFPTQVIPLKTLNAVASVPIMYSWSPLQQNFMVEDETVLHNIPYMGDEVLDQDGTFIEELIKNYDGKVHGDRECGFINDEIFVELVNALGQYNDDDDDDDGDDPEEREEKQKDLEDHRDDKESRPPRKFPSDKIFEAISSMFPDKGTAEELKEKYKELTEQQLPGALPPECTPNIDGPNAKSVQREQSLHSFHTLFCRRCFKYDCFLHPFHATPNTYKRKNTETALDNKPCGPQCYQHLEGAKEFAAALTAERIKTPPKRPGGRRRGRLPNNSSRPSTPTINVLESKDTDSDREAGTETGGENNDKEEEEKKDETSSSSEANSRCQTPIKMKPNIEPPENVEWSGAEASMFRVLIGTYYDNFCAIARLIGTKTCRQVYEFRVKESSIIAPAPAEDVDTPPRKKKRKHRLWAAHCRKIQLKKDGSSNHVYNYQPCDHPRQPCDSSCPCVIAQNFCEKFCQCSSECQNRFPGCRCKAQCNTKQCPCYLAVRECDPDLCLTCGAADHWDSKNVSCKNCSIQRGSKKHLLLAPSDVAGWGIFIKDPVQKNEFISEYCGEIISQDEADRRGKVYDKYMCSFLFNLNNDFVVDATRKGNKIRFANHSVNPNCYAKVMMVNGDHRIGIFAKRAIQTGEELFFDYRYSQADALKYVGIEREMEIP
Chain of wild-type EZH2 (PRC2 enzyme) (O75530 whole entry partner): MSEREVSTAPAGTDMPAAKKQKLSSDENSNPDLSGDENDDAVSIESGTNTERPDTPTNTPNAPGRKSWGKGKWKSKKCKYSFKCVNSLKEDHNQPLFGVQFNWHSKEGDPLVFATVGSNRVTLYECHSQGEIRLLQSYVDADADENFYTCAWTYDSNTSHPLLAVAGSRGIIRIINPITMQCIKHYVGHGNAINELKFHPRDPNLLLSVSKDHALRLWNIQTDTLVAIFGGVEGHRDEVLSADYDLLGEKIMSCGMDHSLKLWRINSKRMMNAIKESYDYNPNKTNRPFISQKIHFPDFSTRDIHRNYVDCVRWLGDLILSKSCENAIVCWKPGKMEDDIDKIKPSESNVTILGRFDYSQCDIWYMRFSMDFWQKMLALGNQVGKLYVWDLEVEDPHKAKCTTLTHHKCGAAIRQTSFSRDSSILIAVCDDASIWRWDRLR
Chain of wild-type EZH2 (PRC2 enzyme) (Q15022 whole entry partner): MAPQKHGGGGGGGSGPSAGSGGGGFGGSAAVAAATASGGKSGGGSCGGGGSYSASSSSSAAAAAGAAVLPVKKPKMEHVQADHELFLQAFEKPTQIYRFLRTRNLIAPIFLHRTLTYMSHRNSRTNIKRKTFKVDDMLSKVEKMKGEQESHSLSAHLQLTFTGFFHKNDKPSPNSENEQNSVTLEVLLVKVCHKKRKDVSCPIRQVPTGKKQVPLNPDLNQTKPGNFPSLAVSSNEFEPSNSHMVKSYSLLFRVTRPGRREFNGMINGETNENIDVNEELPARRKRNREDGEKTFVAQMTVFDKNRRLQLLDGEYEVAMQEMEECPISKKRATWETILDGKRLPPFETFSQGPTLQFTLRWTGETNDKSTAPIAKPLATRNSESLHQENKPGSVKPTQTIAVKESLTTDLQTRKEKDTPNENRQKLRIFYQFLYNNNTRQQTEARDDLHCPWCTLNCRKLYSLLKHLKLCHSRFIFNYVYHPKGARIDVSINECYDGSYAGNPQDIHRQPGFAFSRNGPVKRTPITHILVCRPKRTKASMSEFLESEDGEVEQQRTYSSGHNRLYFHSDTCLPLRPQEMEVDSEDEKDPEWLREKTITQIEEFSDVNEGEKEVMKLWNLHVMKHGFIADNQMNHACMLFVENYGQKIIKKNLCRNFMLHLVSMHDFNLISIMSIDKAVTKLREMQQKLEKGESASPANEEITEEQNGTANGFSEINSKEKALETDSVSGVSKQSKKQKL
Chain of wild-type EZH2 (PRC2 enzyme) (Q09028 whole entry partner): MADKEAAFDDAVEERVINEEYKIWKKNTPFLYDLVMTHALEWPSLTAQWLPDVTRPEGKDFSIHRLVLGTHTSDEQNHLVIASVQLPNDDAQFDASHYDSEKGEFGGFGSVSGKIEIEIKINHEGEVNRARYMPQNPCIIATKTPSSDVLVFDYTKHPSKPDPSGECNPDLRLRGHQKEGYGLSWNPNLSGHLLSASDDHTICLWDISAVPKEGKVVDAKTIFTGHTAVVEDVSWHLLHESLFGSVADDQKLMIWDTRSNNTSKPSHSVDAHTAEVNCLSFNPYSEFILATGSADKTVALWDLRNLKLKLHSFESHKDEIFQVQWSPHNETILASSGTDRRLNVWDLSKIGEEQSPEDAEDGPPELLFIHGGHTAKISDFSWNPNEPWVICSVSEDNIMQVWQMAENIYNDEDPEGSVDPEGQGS
Chain of EZH2 Y641F mutant (PRC2 enzyme) (Q15910 whole entry Y641F): as the sequence (Q15910 whole entry) above, with Y641F counted along it
Chain of EZH2 Y641F mutant (PRC2 enzyme) (O75530 whole entry partner): as the sequence (O75530 whole entry partner) above
Chain of EZH2 Y641F mutant (PRC2 enzyme) (Q15022 whole entry partner): as the sequence (Q15022 whole entry partner) above
Chain of EZH2 Y641F mutant (PRC2 enzyme) (Q09028 whole entry partner): as the sequence (Q09028 whole entry partner) above

As for `CCN(c1cc(Cl)cc(C(=O)NCc2c(N3CCCC3)n(C)[nH]c2=O)c1C)[C@H]1CC[C@H](N(C)C)CC1` [Compound 81, 5-chloro-3-(((trans)-4-(dimethylamino)cyclohexyl) (ethyl)amino)-2-methyl-N-((1-methyl-3-oxo-5-(pyrrolidin-1-yl)-2,3-dihydro-1H-pyrazol-4-yl)methyl)benzamide], the IC50 was found to be 1260 nM in test [1], 5 nM in test [2], 2190 nM in test [3] and 18 nM in test [4].
In the case of `CCN(c1cc(-c2ccc(OCCOC)cc2)cc(C(=O)NCc2c(C)n(C)[nH]c2=O)c1C)[C@H]1CC[C@H](N(C)CCOC)CC1` [Compound 60, N-((1,5-dimethyl-3-oxo-2,3-dihydro-1H-pyrazol-4-yl)methyl)-5-(ethyl((trans)-4-((2-methoxyethyl)(methyl)amino)cyclohexyl)amino)-4′-(2-methoxyethoxy)-4-methyl-[1,1′-biphenyl]-3-carboxamide], the results for the half-inhibitory concentration (IC50) in test [1], in test [2] and in test [4] were 13500 nM, 695 nM and 2110 nM, respectively.
The molecule `CCN(c1cc(Cl)cc(C(=O)NCc2c(CCN(C)C)cc3n(c2=O)NCC3)c1C)[C@H]1CC[C@H](N(C)C)CC1` [Compound 1, 5-chloro-3-(((trans)-4-(dimethylamino)cyclohexyl)(ethyl)amino)-N-((5-(2-(dimethylamino)ethyl)-7-oxo-1,2,3,7-tetrahydropyrazolo[1,5-a]pyridin-6-yl)methyl)-2-methylbenzamide] returned an IC50 in test [1] of 850 nM.
Take `CCN(c1cc(Cl)cc(C(=O)NCc2c(C)[nH][nH]c2=O)c1C)[C@H]1CC[C@H](N(C)C)CC1` [Compound 32, 5-chloro-3-(ethyl((trans)-4-(dimethylamino)cyclohexyl)amino)-2-methyl-N-((5-methyl-3-oxo-2,3-dihydro-1H-pyrazol-4-yl)methyl]benzamide Formate]: the IC50 was 11500 nM in test [1], 15 nM in test [2], 15400 nM in test [3] and 68 nM in test [4].
As for `CCOc1n[nH]c(C)c1CNC(=O)c1cc(Cl)cc(N(CC)[C@H]2CC[C@H](N(C)C)CC2)c1C` [Compound 85, 5-chloro-3-(((trans)-4-(dimethylamino)cyclohexyl)(ethyl)amino)-N-((3-ethoxy-5-methyl-1H-pyrazol-4-yl)methyl)-2-methylbenzamide], the IC50 in test [1] is 6380 nM; in test [2], 7520 nM; in test [3] it was > 50000 nM; in test [4], 35200 nM.
Regarding `CCN(c1cc(Cl)cc(C(=O)NCc2c(=O)[nH]n3cccnc23)c1C)[C@H]1CC[C@H](N(C)C)CC1` [Compound 51, 5-chloro-3-(((trans)-4-(dimethylamino)cyclohexyl)(ethyl)amino)-2-methyl-N-((2-oxo-1,2-dihydropyrazolo-[1,5-a]-pyrimidin-3-yl)methyl)benzamide], the IC50 in test [1] is > 20000 nM; in test [2] it was 573 nM; in test [4], 2870 nM.
As to `CCn1[nH]c(=O)c(CNC(=O)c2cc(Cl)cc(N(CC)[C@H]3CC[C@H](N(C)C)CC3)c2C)c1C` [Compound 52, 5-chloro-3-(((trans)-4-(dimethylamino)cyclohexyl)(ethyl)amino)-N-((1-ethyl-5-methyl-3-oxo-2,3-dihydro-1H-pyrazol-4-yl)methyl)-2-methylbenzamide], the IC50 in test [1] came out at 7340 nM; in test [2] it was 30 nM; in test [3] it was 3040 nM; in test [4], 367 nM.
On the same counts, the results for `CCN(c1cc(Cl)cc(C(=O)NCc2c(C)n(C)[nH]c2=O)c1C)[C@H]1CC[C@H](N(C)Cc2cccc(OC)c2)CC1` [Compound 57, 5-chloro-N-((1,5-dimethyl-3-oxo-2,3-dihydro-1H-pyrazol-4-yl)methyl)-3-(ethyl((trans)-4-((3-methoxybenzyl)(methyl)amino)cyclohexyl)amino)-2-methylbenzamide] are 6050 nM, 10 nM, 6160 nM and 20 nM.
The corresponding values for `CCN(c1cc(Cl)cc(C(=O)NCc2c(OC)n(C)[nH]c2=O)c1C)[C@H]1CC[C@H](N(C)C)CC1` [Compound 86, 5-chloro-3-(ethyl((trans)-4-(dimethylamino)cyclohexyl]amino)-N-((5-methoxy-1-methyl-3-oxo-2,3-dihydro-1H-pyrazol-4-yl)methyl)-2-methylbenzamide] are 1130 nM, 1 nM, 1790 nM and 21 nM.
On the same counts, the results for `CCn1[nH]c(=O)c(CNC(=O)c2cc(Cl)cc(N(CC)[C@H]3CC[C@H](N(C)Cc4cccc(OC)c4)CC3)c2C)c1C` [Compound 63, 5-chloro-3-(ethyl ((trans)-4-((3-methoxybenzyl)-(methyl)-amino)-cyclohexyl)amino)-N-((1-ethyl-5-methyl-3-oxo-2,3-dihydro-1H-pyrazol-4-yl)methyl)-2-methylbenzamide] are 1550 nM, 12 nM, > 50000 nM and 46 nM.
With `CCN(c1cc(Cl)cc(C(=O)NCc2c(C)[nH]n(C)c2=O)c1C)[C@@H]1COC[C@H]1OC` (relative stereo) [Compound 42, 5-chloro-N-((2,5-dimethyl-3-oxo-2,3-dihydro-1H-pyrazol-4-yl)methyl)-3-(ethyl((trans)-4-methoxytetrahydrofuran-3-yl)amino)-2-methylbenzamide], the IC50 in test [1] was > 20000 nM; in test [4], > 50000 nM.
In the case of `CCc1[nH]n(C)c(=O)c1CNC(=O)c1cc(Cl)cc(N(CC)[C@H]2CC[C@H](N(C)C)CC2)c1C` [Compound 38, 5-chloro-3-(((trans)-4-(dimethylamino)cyclohexyl)(ethyl)amino)-N-((5-ethyl-2-methyl-3-oxo-2,3-dihydro-1H-pyrazol-4-yl)methyl)-2-methylbenzamide], the IC50 in test [1] is > 20000 nM; in test [2] it was 265 nM; in test [3], 18100 nM; in test [4], 3370 nM.
As to `CCn1nc(OC)c(CNC(=O)c2cc(Cl)cc(N(CC)[C@H]3CC[C@H](N(C)Cc4ccc(OC)cc4)CC3)c2C)c1C` [Compound 70, 5-chloro-3-(ethyl((trans)-4-((4-methoxybenzyl)-(methyl)-amino)-cyclohexyl)-amino)-N-((1-ethyl-3-methoxy-5-methyl-1H-pyrazol-4-yl)methyl)-2-methylbenzamide], the IC50 in test [1] is 3610 nM; in test [2], 12 nM; in test [3], 4060 nM; in test [4] it was 39 nM.
In the case of `CCCN(c1cc(-c2ccc(OCCOC)cc2)cc(C(=O)NCc2c(C)n(C)[nH]c2=O)c1C)[C@H]1CC[C@H](N(C)C)CC1` [Compound 58, N-((1,5-dimethyl-3-oxo-2,3-dihydro-1H-pyrazol-4-yl)methyl)-5-(((trans)-4-(dimethylamino)cyclohexyl)(propyl)amino)-4′-(2-methoxyethoxy)-4-methyl-[1,1′-biphenyl]-3-carboxamide], the IC50 was 14300 nM in test [1], 342 nM in test [2] and 1540 nM in test [4].
On to `CCN(c1cc(Cl)cc(C(=O)NCc2c(C)[nH]n(C)c2=O)c1C)[C@H]1CC[C@H](N(C)C)CC1` [Compound 34, 5-chloro-N-((2,5-dimethyl-3-oxo-2,3-dihydro-1H-pyrazol-4-yl)methyl)-3-(((trans)-4-(dimethylamino)cyclohexyl)(ethyl)amino)-2-methylbenzamide], for which the IC50 in test [1] was determined as 6920 nM; in test [2], 110 nM; in test [3], 18600 nM; in test [4], 223 nM.
Turning to `CCN(c1cc(-c2ccc(OCCOC)cc2)cc(C(=O)NCc2c(C)n(C)[nH]c2=O)c1C)[C@H]1CC[C@H](N(C)C)CC1` [Compound 59, N-((1,5-dimethyl-3-oxo-2,3-dihydro-1H-pyrazol-4-yl)methyl)-5-(((trans)-4-(dimethylamino)cyclohexyl)(ethyl)amino)-4′-(2-methoxyethoxy)-4-methyl-[1,1′-biphenyl]-3-carboxamide], the IC50 in test [1] was > 20000 nM; in test [3], > 50000 nM.
Consider `CCN(c1cc(Cl)cc(C(=O)NCc2c(N3CCCCC3)n(C)[nH]c2=O)c1C)[C@H]1CC[C@H](N(C)C)CC1` [Compound 93, 5-chloro-3-(ethyl[(trans)-4-(dimethylamino)cyclohexyl]amino)-2-methyl-N-([1-methyl-3-oxo-5-(piperidin-1-yl)-2,3-dihydro-1H-pyrazol-4-yl]methyl)benzamide], for which the figures for the IC50 in test [2], in test [3] and in test [4] were 14.4 nM, 3550 nM and 9.71 nM, respectively.
